This note sets out measurements from patent US6359144B1, “Combinatorial libraries of bicyclic guanidine derivatives and compounds therein” (Lion Bioscience AG, priority 1997, dated 2002).

For the test, the target named is T1, calmodulin (Homo sapiens, UniProt P0DP23).
T1 construct: purchased Boehringer Mannheim (calmodulin); Sigma (PDE, 5'-nucleotidase)
Briefly: Calmodulin-dependent phosphodiesterase (CaMPDE) assay. The note with it: 53 individual compounds, Table 17. It counts as biochemical. How it is done: An example of an assay that identifies CaM antagonists is a CaMPDE assay, such as the one whose results are shown in Examples IX to XII, below. Samples are mixed with 50 μl of assay buffer (360 mM Tris, 360 mM Imidazole, 45 mM Mg(CH3COO)2, pH 7.5) and 10 μl of CaCl2 (4.5 mM) to a final volume of 251 μl. 25 μl of calmodulin stock solution (Boehringer Mannheim; 0.01 μg/μl) is then added and the samples then sit at room temperature for 10 minutes. 14 μl of PDE (Sigma; 2 Units dissolved in 4 ml of water; stock concentration: 0.0005 Units/μl) is then added, followed by 50 μl of 5′-nucleotidase (Sigma; 100 Units dissolved in 10 ml of 10 mM Tris-HCl containing 0.5 mM Mg(CH3COO)2, pH 7.0; stock concentration: 10 Units/ml). The samples are then incubated for 10 minutes at 30° C. 50 μl of adenosine 3′,5′-cyclic monophosphate (cAMP) (20 mM in water at pH 7.0) is added, the samples incubated for 1 hour at 30° C. and then vortexed. 200 μl of trichloroacetic acid (TCA) (55% in water) is added to a 200 μl sample aliquot, which is then vortexed and centrifuged for 10 minutes. 80 μl of the resulting supernatants of each sample is transferred to a 96-well plate, with 2 wells each containing 80 μl of each sample. 80 μl of ammonium molybdate (1.1% in 1.1N H2SO4) is then added to all the wells, and the OD of each were determined at 730 nm, with the values later subtracted to the final OD reading. 16 μl of reducing agent (6 g sodium bisulfite, 0.6 g sodium sulfite and 125 mg of 1-amino-2-naphtol-4-sulfonic acid in 50 ml of water) is then added to one of each sample duplicate and 16 μl of water is added to the other duplicate. After sitting for 1 hour at room temperature, the OD of each well is determined at 730 nm. […]

Where “and” joins values, the source holds several entries; their conditions need not be identical. Equal values may be shown once.

Broadly, the IC50 is the point on the concentration scale where inhibition reaches its midpoint. Low values mean higher potency, high ones lower potency.

On to `c1ccc(CC2CN3C(=NCC3Cc3ccccc3)N2CCCCC2CCCCC2)cc1` [L-Phe/L-Phe/cyclohexylbutyric acid], for which the IC50 is 6.98 µM. That is a single-digit micromolar value.
Consider `C1CCC(CC2CN3C(=NCC3C3CCCCC3)N2CCC23CC4CC(CC(C4)C2)C3)CC1` (single isomer, unassigned) [L-Chg/L-Cha/1-adamantaneacetic acid], for which the IC50 is 13.4 µM and 25.8 µM.
As for `C1CCC(CC2CN3C(=NCC3C3CCCCC3)N2CCC23CC4CC(CC(C4)C2)C3)CC1` (single isomer, unassigned) [D-chg/D-cha/1-adamantaneacetic acid], the IC50 was 15.1 µM.
`C1CCC(CC2CN3C(=NCC3CC3CCCCC3)N2CCC23CC4CC(CC(C4)C2)C3)CC1` (single isomer, unassigned) [L-Cha/L-Cha/1-adamantaneacetic acid]: it took 7.86 µM to reach half-maximal inhibition (IC50).
On to `C1CCC(C[C@@H]2CN=C3N2C[C@@H](C2CCCCC2)N3CCC23CC4CC(CC(C4)C2)C3)CC1` [D-cha/D-chg/1-adamantaneacetic acid], for which it took 17.4 µM to reach half-maximal inhibition (IC50).
On to `CCN1C2=NC[C@@H](C)N2C[C@@H]1Cc1ccccc1` [D-ala/L-Phe/acetic acid], for which half-maximal inhibition (IC50) was put at 40.1 µM. Compared with the last molecule, the IC50 is about 2.3-fold higher.
`CCN1C2=NC[C@H](Cc3ccccc3)N2C[C@H]1Cc1c[nH]c2ccccc12` [L-Phe/D-trp/acetic acid] gave an IC50 of 19.5 µM.
`C1CCC(CCCN2C3=NC[C@@H](C4CCCCC4)N3C[C@@H]2CC2CCCCC2)CC1` [D-chg/L-Cha/cyclohexylpropionic acid] showed an IC50 of 15.7 µM. This IC50 and that of the molecule before are within 1.5-fold of each other.
In the case of `O=[N+]([O-])c1ccc(CCN2C3=NC[C@H](Cc4ccccc4)N3C[C@@H]2Cc2ccccc2)c([N+](=O)[O-])c1` [L-Phe/L-Phe/2,4-dinitrophenylacetic acid], the IC50 was 12.5 µM.
Under `CC(C)(C)C1CCC(CN2C3=NC[C@H](CC4CCCCC4)N3C[C@@H]2CC2CCCCC2)CC1` (stereo partly shown) stands 2.24 µM; under `C1CCC(C2CN3C(=NCC3C3CCCCC3)N2CCC23CC4CC(CC(C4)C2)C3)CC1` (single isomer, unassigned) [L-Chg/D-chg/1-adamantaneacetic acid], 4.61 µM.
Under `CC(C)(C)C1CCC(CN2C3=NCC(C4CCCCC4)N3CC2CC2CCCCC2)CC1` (single isomer, unassigned) [listing 1 of 4 here] stands 8.65 µM; under `C1CCC(CC2CN3C(=NCC3CC3CCCCC3)N2CCC23CC4CC(CC(C4)C2)C3)CC1` (single isomer, unassigned) [D-cha/L-Cha/1-adamantaneacetic acid], 3.97 µM.
For `CC(C)(C)C1CCC(CN2C3=NC[C@@H](C4CCCCC4)N3C[C@@H]2C2CCCCC2)CC1` (stereo partly shown) the value was 10.7 µM; for `C1CCC(C[C@H]2CN=C3N2C[C@@H](C2CCCCC2)N3CCC23CC4CC(CC(C4)C2)C3)CC1` [L-Cha/D-chg/1-adamantaneacetic acid], 6.11 µM.
Take `CC(C)C[C@@H]1CN2C(=NC[C@@H]2C2CCCCC2)N1CCCC1CCCCC1` [L-Chg/D-leu/cyclohexylpropionic acid]: the midpoint of inhibition, the IC50, lay at 25.2 µM.
For `CCN1C2=NC[C@H](Cc3ccccc3)N2C[C@@H]1Cc1c[nH]c2ccccc12` [L-Phe/L-Trp/acetic acid], half-maximal inhibition (IC50) required 24.8 µM.
`CC(C)(C)C1CCC(CN2C3=NCC(C4CCCCC4)N3CC2CC2CCCCC2)CC1` (single isomer, unassigned) [listing 2 of 4 here] showed an IC50 of 3.19 µM.
Under `CC(C)(C)C1CCC(CN2C3=NC[C@H](Cc4ccccc4)N3C[C@@H]2Cc2ccccc2)CC1` (stereo partly shown) stands 21.5 µM; under `C1CCC(C[C@H]2CN=C3N2C[C@H](C2CCCCC2)N3CCC23CC4CC(CC(C4)C2)C3)CC1` [L-Cha/L-Chg/1-adamantaneacetic acid], 16.2 µM; under `c1ccc(CC2CN3C(=NCC3Cc3ccccc3)N2CCc2ccc(-c3ccccc3)cc2)cc1` [L-Phe/L-Phe/4-biphenylacetic acid], 14.1 µM.
As for `CC(C)(C)C1CCC(CN2C3=NC[C@H](CC4CCCCC4)N3C[C@H]2C2CCCCC2)CC1` (stereo partly shown), the IC50 was 3.98 µM.
For the molecule `c1ccc(C[C@H]2CN=C3N(CCC45CC6CC(CC(C6)C4)C5)[C@@H](Cc4ccccc4)CN32)cc1` [L-Phe/L-Phe/1-adamantaneacetic acid], 16.7 µM corresponded to half-maximal inhibition (IC50).
Regarding `C1CCC(C2CN3C(=NCC3C3CCCCC3)N2CCC23CC4CC(CC(C4)C2)C3)CC1` (single isomer, unassigned) [L-Chg/L-Chg/1-adamantaneacetic acid], the IC50 is 19.8 µM.
Under `CC(C)(C)C1CCC(CN2C3=NC[C@@H](CC4CCCCC4)N3C[C@@H]2C2CCCCC2)CC1` (stereo partly shown) stands 4.71 µM; under `CC(C)(C)C1CCC(CN2C3=NC[C@@H](C4CCCCC4)N3C[C@H]2C2CCCCC2)CC1` (stereo partly shown), 15.5 µM.
Regarding `CC(C)C[C@@H]1CN2C(=NC[C@@H]2C2CCCCC2)N1CCC12CC3CC(CC(C3)C1)C2` [L-Chg/D-leu/1-adamantaneacetic acid], the midpoint of inhibition, the IC50, lay at 16.9 µM.
`CC(C)(C)C1CCC(CN2C3=NCC(C4CCCCC4)N3CC2CC2CCCCC2)CC1` (single isomer, unassigned) [listing 3 of 4 here] had an IC50 of 5.21 µM.
On to `CC(C)(C)C1CCC(CN2C3=NC[C@H](CC4CCCCC4)N3C[C@H]2CC2CCCCC2)CC1` (stereo partly shown), for which the IC50 is 1.89 µM.
For `C1CCC(CC2CN3C(=NCC3C3CCCCC3)N2CCC23CC4CC(CC(C4)C2)C3)CC1` (single isomer, unassigned) [D-chg/L-Cha/1-adamantaneacetic acid] the value was 4.74 µM and 6.46 µM.
In turn, `C1CCC(CC2CN3C(=NCC3CC3CCCCC3)N2CCC23CC4CC(CC(C4)C2)C3)CC1` (single isomer, unassigned) [D-cha/D-cha/1-adamantaneacetic acid] showed an IC50 of 10.2 µM.
With `CC(C)(C)C1CCC(CN2C3=NC[C@@H](CC4CCCCC4)N3C[C@H]2CC2CCCCC2)CC1` (stereo partly shown), the IC50 is 4.43 µM.
Under `CC(C)(C)C1CCC(CN2C3=NC[C@H](C4CCCCC4)N3C[C@H]2C2CCCCC2)CC1` (stereo partly shown) stands 13.1 µM.
Take `c1ccc(CC2CN3C(=NCC3Cc3ccccc3)N2CCCC2CCCCC2)cc1` [L-Phe/L-Phe/cyclohexylpropionic acid]: the IC50 is 21.5 µM.
`CC(C)(C)C1CCC(CN2C3=NC[C@H](CC4CCCCC4)N3C[C@@H]2C2CCCCC2)CC1` (stereo partly shown): the IC50 was 10.1 µM.
`C1CCC(CC2CN3C(=NCC3C3CCCCC3)N2CCC23CC4CC(CC(C4)C2)C3)CC1` (single isomer, unassigned) [L-Chg/D-cha/1-adamantaneacetic acid] showed an IC50 of 2.83 µM.
Take `CC(C)(C)C1CCC(CN2C3=NC[C@@H](CC4CCCCC4)N3C[C@H]2C2CCCCC2)CC1` (stereo partly shown): 4.73 µM corresponded to half-maximal inhibition (IC50).
`CC(C)(C)C1CCC(CN2C3=NCC(C4CCCCC4)N3CC2CC2CCCCC2)CC1` (single isomer, unassigned) [listing 4 of 4 here] had an IC50 of 2.4 µM.
For the molecule `CC(C)(C)C1CCC(CN2C3=NC[C@@H](CC4CCCCC4)N3C[C@@H]2CC2CCCCC2)CC1` (stereo partly shown), inhibition was half-maximal at 2.81 µM (IC50).
For the molecule `C1CCC(C[C@@H]2CN=C3N2C[C@H](C2CCCCC2)N3CCC23CC4CC(CC(C4)C2)C3)CC1` [D-cha/L-Chg/1-adamantaneacetic acid], half-maximal inhibition (IC50) required 10.1 µM.
Under `C1CCC(C2CN3C(=NCC3C3CCCCC3)N2CCC23CC4CC(CC(C4)C2)C3)CC1` (single isomer, unassigned) [D-chg/L-Chg/1-adamantaneacetic acid] stands 12.9 µM; under `C1CCC(C2CN3C(=NCC3C3CCCCC3)N2CCC23CC4CC(CC(C4)C2)C3)CC1` (single isomer, unassigned) [D-chg/D-chg/1-adamantaneacetic acid], 21.5 µM.
As to `CC(C)(C)C1CCC(CN2C3=NC[C@H](C4CCCCC4)N3C[C@@H]2C2CCCCC2)CC1` (stereo partly shown), the IC50 is 14.6 µM.
